From patent US6974800B1, “Formulations comprising an inhibitor of carboxypeptidase U and A thrombin inhibitor” (AstraZeneca AB, priority 1999, dated 2005)

Test system: lung fibrin deposition
Assay: Lung fibrin deposition in the anaesthetized rat (endotoxin + batroxobin, 125I-fibrinogen)
Type: in vivo, rat (Sprague Dawley)
Description: Batroxobin No. 520 CRY (American Diagnostica Inc., Greenwich, Conn., USA) was kept at 8° C. both while lyophilized and when dissolved in saline to a concentration of 10 BU/ml. It was used within 5 days in the experiments. The remaining drug was freezed and kept at […] for a maximum of 30 days.
Endotoxin L-3129 (Sigma, St. Louis, Mo., USA) was dissolved in saline to a concentration of 50 μg/ml. A fresh solution was prepared for each experiment.
^125I-labelled human fibrinogen (Amersham, Little Chalfont, Buck., UK) was stored at 8° C. while lyophilized. After dissolving in saline/aq.dest. (80/20 v/v) to a stock solution of approx. 0.8 MBq/ml (20 μCi/ml) it was divided into aliquots (one for each experiment), quickly freezed and stored at −20° C. It was used in the experiments within 14 days after the production date.
The thrombin inhibitor inogatran was dissolved in 40% (w/w) cyclodextrin (HPβCD) to a concentration of 5 mg/ml and stored at −20° C. It was further diluted with 40% cyclo-dextrin before use in the different experiments. In the studies the drug was administered subcutaneously.
The thrombin inhibitor melagatran was dissolved in saline.
The CPU inhibitors […] and Compound A were dissolved in deoxygenated saline. The saline was deoxygenated by ultrasonication for 20 min and subsequently by passing nitrogen for another 20 min. The solutions were always fresh-made for each experiment. The CPU inhibitor was administered to the rats as an i.v. infusion for 5 min.
Male rats of the Sprague Dawley strain (Charles River, Sweden) with a body weight of 325–425 g were used in these experiments. The animals were allowed to accommodate at AstraZeneca R&D, Mölndal, Sweden for 1 week before use.
Anaesthesia was induced and maintained by Inactin 100 mg/kg i.p.
Two catheters were inserted in the left jugular vein, one for administration of ^125I-fibrinogen and batroxobin and the other for administration of endotoxin and CPU inhibitor or their corresponding vehicles. A third catheter was inserted in the carotid artery for blood sampling and measurement of the mean arterial blood pressure and heart rate. To avoid blood clots in the arterial catheter a slow saline infusion (approx. 1.0 ml/kg*h) was maintained throughout the experiment. The rats were tracheotomized in order to facilitate spontaneous breathing. The body temperature was monitored and maintained at 38° C. by external heating.
The animals were given an i.v. injection of endotoxin (50 μg/kg) at the start of the experiment. Two hours later the thrombin inhibitor or its vehicle was injected subcutaneously and another 15 min later ^125I-fibrinogen (0.04 MBq) was given as an i.v. injection. An infusion lasting for five minutes of the CPU-inhibitor or its vehicle was started after 5 min. After 5 min, batroxobin (10 BU/kg) was given as an i.v. bolus injection for one minute.
Blood samples for determination of ^125I-content were taken in all experiments just before and 5, 20 and 30 min after the batroxobin administration. At the end of the experiment the lungs were excised, the tissue was gently washed in saline and thereafter blotted and weighed. The ^125I-content in the tissue and blood samples was determined, using a Wallac 1282 Compugamma counter. The ^125I-concentration in plasma and in the lungs was expressed as a percentage of the radioactivity in the reference arterial blood sample taken just prior to the batroxobin injection.
For each of the four different dose combinations, only CPU inhibitor, only thrombin inhibitor, thrombin inhibitor together with CPU inhibitor at 0.2 and 0.28 μmol/kg respectively, separate E-max models were fitted. The models were fitted on a logarithmic scale giving estimates of the median effective dose, i.e., the dose where half of the population has 50% effect.

N=C(N)NCCSCC(CS)C(=O)O (racemic) [MERGETPA, DL-2-mercaptomethyl-3-guanidinoethylthiopropanoic acid] was tested, and the “Remaining fibrin after treatment” value (Table I, CPU inhibitor alone, 8.4 μmol/kg i.v. infusion, 100% = no effect) was 90 ± 18.1%, the “Remaining fibrin after treatment” value (Table I, CPU inhibitor alone, 21.1 μmol/kg i.v. infusion) was 37 ± 19.3% and the “Remaining fibrin after treatment” value (Table I, CPU inhibitor alone, 33.7 μmol/kg i.v. infusion) was 23 ± 17.3%.

With Nc1ccc(CC(CS)C(=O)O)cn1 (stereo not drawn) [compound A, 3-(6-amino-pyridin-3-yl)-2-mercaptomethyl-propanoic acid] the “Remaining fibrin after treatment” value (Table II, CPU inhibitor alone, 0.20 μmol/kg i.v. infusion) was 100 ± 25.8%, the “Remaining fibrin after treatment” value (Table II, CPU inhibitor alone, 0.28 μmol/kg) was 88 ± 23.2% and the “Remaining fibrin after treatment” value (Table II, CPU inhibitor alone, 0.4 μmol/kg) was 87 ± 50.6 n = 6%. The “Remaining fibrin after treatment” value (Table II, CPU inhibitor alone, 2.0 μmol/kg) was 49 ± 30.0 n = 7%, the “Remaining fibrin after treatment” value (Table II, CPU inhibitor alone, 4.0 μmol/kg) was 15 ± 9.3 n = 4% and the “Remaining fibrin after treatment” value (Table II, CPU inhibitor alone, 20.0 μmol/kg) was 7 ± 1.4 n = 2%. The “Remaining fibrin after treatment” value (Table III, CPU inhibitor alone, 0.20 μmol/kg) was 97 ± 24.1% and the “Remaining fibrin after treatment” value (Table III, CPU inhibitor alone, 0.28 μmol/kg) was 81 ± 24.5%.

In the case of N=C(N)NCCCNC(=O)[C@@H]1CCCCN1C(=O)[C@@H](CC1CCCCC1)NCC(=O)O [inogatran, HOOC—CH2—(R)Cha-Pic-Nag-H], the “Remaining fibrin after treatment” value (Table I, thrombin inhibitor alone, 2.3 μmol/kg s.c.) is reported as 94 ± 20.2 n = 6%, the “Remaining fibrin after treatment” value (Table I, thrombin inhibitor alone, 3.4 μmol/kg s.c.) is reported as 72 ± 23.6 n = 6% and the “Remaining fibrin after treatment” value (Table I, thrombin inhibitor alone, 5.7 μmol/kg s.c.) is reported as 41 ± 20.3 n = 6%. For the same molecule, the “Remaining fibrin after treatment” value (Table I, thrombin inhibitor alone, 17.2 μmol/kg s.c.) was 39 ± 15.9 n = 6%.

In the case of N=C(N)c1ccc(CNC(=O)[C@@H]2CCN2C(=O)[C@H](NCC(=O)O)C2CCCCC2)cc1 [melagatran, HOOC—CH2—(R)Cgl-Aze-Pab-H], the “Remaining fibrin after treatment” value (Table II, thrombin inhibitor alone, 0.23 μmol/kg s.c.) is reported as 97 ± 12.4 n = 6%, the “Remaining fibrin after treatment” value (Table II, thrombin inhibitor alone, 0.35 μmol/kg) is reported as 77 ± 22.4 n = 4% and the “Remaining fibrin after treatment” value (Table II, thrombin inhibitor alone, 0.58 μmol/kg) is reported as 62 ± 17.0 n = 2%. For the same molecule, the “Remaining fibrin after treatment” value (Table II, thrombin inhibitor alone, 1.75 μmol/kg) was 31 ± 13.3 n = 4%, the “Remaining fibrin after treatment” value (Table II, thrombin inhibitor alone, 3.5 μmol/kg) was 55 ± 21.7 n = 4% and the “Remaining fibrin after treatment” value (Table III, thrombin inhibitor alone, 0.18 μmol/kg) was 110 ± 15.2 n = 3%. The “Remaining fibrin after treatment” value (Table III, thrombin inhibitor alone, 0.23 μmol/kg) was 98 ± 11.5 n = 7%, the “Remaining fibrin after treatment” value (Table III, thrombin inhibitor alone, 0.30 μmol/kg) was 87 ± 27.6 n = 3% and the “Remaining fibrin after treatment” value (Table III, thrombin inhibitor alone, 0.35 μmol/kg) was 77 ± 22.4 n = 4%.
